This note sets out measurements from PubChem BioAssay AID330 (DTP/NCI, 2004).

This assay concerns P388 leukemia ip, CD2F1 mice, survival T/C. Nature of the assay: NCI In Vivo Anticancer Drug Screen. Data for tumor model P388 Leukemia (intraperitoneal) in CD2F1 (CDF1) mice. As to conditions: endpoint: median survival time, higher = longer survival. Put shortly:
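Mice carrying the transplanted tumor received test compound or vehicle. Survival was recorded in each group, and the value is the treated-group measurement divided by that of the vehicle-treated control group.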

Where [1] appears, read: dose: 50.0 mg/kg/injection, schedule: Q01DX009 (ip), vehicle: saline with Tween-80.
[2] abbreviates: dose: 100.0 mg/kg/injection, schedule: Q01DX009 (ip), vehicle: saline with Tween-80.
The mark [3] stands for this setting: dose: 60.0 mg/kg/injection, schedule: Q01DX005 (ip), vehicle: saline with Tween-80.
The mark [4] stands for this setting: dose: 120.0 mg/kg/injection, schedule: Q01DX005 (ip), vehicle: saline with Tween-80.
Setting [5] is: dose: 50.0 mg/kg/injection, schedule: Q01DX005 (ip), vehicle: Klucel (hydroxypropylcellulose) (HPC).
Where [6] appears, read: dose: 100.0 mg/kg/injection, schedule: Q01DX005 (ip), vehicle: Klucel (hydroxypropylcellulose) (HPC).
Where [7] appears, read: dose: 50.0 mg/kg/injection, schedule: Q01DX005 (ip), vehicle: saline with Tween-80.
Where [8] appears, read: dose: 100.0 mg/kg/injection, schedule: Q01DX005 (ip), vehicle: saline with Tween-80.
Setting [9] is: dose: 200.0 mg/kg/injection, schedule: Q01DX005 (ip), vehicle: saline with Tween-80.

Several values for one entry are separate records, joined by “and”; a condition that tells them apart may be missing. Equal values may be shown once. Inconclusive results and toxic doses are left out.

Take `c1ccc2c(c1)CN1CCN=C1N2`: the T/C reads like this: (dose: 25.0 mg/kg/injection, schedule: Q01DX009 (ip), vehicle: saline) 100 % of control; (dose: 50.0 mg/kg/injection, schedule: Q01DX009 (ip), vehicle: saline) 94 % of control.
Turning to `CCCSCCSCCC`, the T/C is 91 % of control (dose: 25.0 mg/kg/injection, schedule: Q01DX009 (ip), vehicle: saline with Tween-80); 100 % of control under setting [1]; 95 % of control under setting [2].
For the compound `CCOC(=O)c1ccc(NC(=O)Oc2cc(C)ccc2C)cc1`, the T/C by setting is: (dose: 3.75 mg/kg/injection, schedule: Q01DX005 (ip), vehicle: saline with Tween-80) 93 % of control; (dose: 7.5 mg/kg/injection, schedule: Q01DX005 (ip), vehicle: saline with Tween-80) 90 % of control; (dose: 15.0 mg/kg/injection, schedule: Q01DX005 (ip), vehicle: saline with Tween-80) 90 % of control and 94 % of control; under setting [3], 94 % of control.
Regarding `COC1=C(OC)C(=O)C(C(=O)CCCCC(=O)O)=C(C)C1=O`, the T/C under setting [3] was 107 % of control; the T/C under setting [4] was 101 % of control; the T/C (dose: 240.0 mg/kg/injection, schedule: Q01DX005 (ip), vehicle: saline with Tween-80) was 107 % of control.
As to `c1ccc(C2(c3ccc(C4(c5ccccc5)Oc5ccccc5S4)[nH]3)Oc3ccccc3S2)cc1` (stereo not given), the T/C by setting is: under setting [3], 96 % of control; under setting [4], 107 % of control.
For `CCCOc1ccc2c(NCCCCCCNc3c4ccccc4nc4cc(OCCC)ccc34)c3ccccc3nc2c1`, the T/C runs as follows: (dose: 0.62 mg/kg/injection, schedule: Q## X009 (ip), vehicle: lactic acid) 121 % of control; (dose: 2.5 mg/kg/injection, schedule: Q## X009 (ip), vehicle: lactic acid) 120 % of control; (dose: 5.0 mg/kg/injection, schedule: Q## X009 (ip), vehicle: lactic acid) 105 % of control.
Regarding `O=C(C[n+]1cc2ccccc2c2ccccc21)c1ccc(-c2ccccc2)cc1`, the T/C by setting is: (dose: 6.25 mg/kg/injection, schedule: Q01DX005 (ip), vehicle: Klucel (hydroxypropylcellulose) (HPC)) 104 % of control; (dose: 12.5 mg/kg/injection, schedule: Q01DX005 (ip), vehicle: Klucel (hydroxypropylcellulose) (HPC)) 104 % of control; (dose: 25.0 mg/kg/injection, schedule: Q01DX005 (ip), vehicle: Klucel (hydroxypropylcellulose) (HPC)) 110 % of control; under setting [5], 105 % of control; under setting [6], 109 % of control.
For `COc1cc(/C=C/C(C)=N/NC(N)=S)cc(OC)c1OC`, the T/C was 102 % of control (dose: 3.75 mg/kg/injection, schedule: Q01DX005 (ip), vehicle: Klucel (hydroxypropylcellulose) (HPC)); 105 % of control (dose: 7.5 mg/kg/injection, schedule: Q01DX005 (ip), vehicle: Klucel (hydroxypropylcellulose) (HPC)); 99 % of control (dose: 15.0 mg/kg/injection, schedule: Q01DX005 (ip), vehicle: Klucel (hydroxypropylcellulose) (HPC)); 90 % of control and 94 % of control (dose: 30.0 mg/kg/injection, schedule: Q01DX005 (ip), vehicle: Klucel (hydroxypropylcellulose) (HPC)).
Regarding `CC(C)(C)c1ccc(NC(=O)Oc2ccccc2)cc1`, the T/C (dose: 50.0 mg/kg/injection, schedule: Q01DX009 (ip), vehicle: Klucel (hydroxypropylcellulose) (HPC)) was 102 % of control; the T/C (dose: 100.0 mg/kg/injection, schedule: Q01DX009 (ip), vehicle: Klucel (hydroxypropylcellulose) (HPC)) was 105 % of control; the T/C (dose: 200.0 mg/kg/injection, schedule: Q01DX009 (ip), vehicle: Klucel (hydroxypropylcellulose) (HPC)) was 102 % of control.
On to `Cc1cc(/C=C2/OC(=O)c3ccccc32)cc(C)c1O`, for which the T/C by setting is: (dose: 100.0 mg/kg/injection, schedule: Q04DX002 (ip), vehicle: saline) 94 % of control; (dose: 200.0 mg/kg/injection, schedule: Q04DX002 (ip), vehicle: saline) 97 % of control; (dose: 400.0 mg/kg/injection, schedule: Q04DX002 (ip), vehicle: saline) 97 % of control.
Take `COC(=O)c1ccc(O)c([N+](=O)[O-])c1`: the T/C runs as follows: (dose: 50.0 mg/kg/injection, schedule: Q04DX003 (ip), vehicle: saline with Tween-80) 100 % of control; (dose: 100.0 mg/kg/injection, schedule: Q04DX003 (ip), vehicle: saline with Tween-80) 109 % of control; (dose: 200.0 mg/kg/injection, schedule: Q04DX003 (ip), vehicle: saline with Tween-80) 100 % of control.
On to `CC1(C)CC(=O)C(C(c2ccccc2O)C2C(=O)CC(C)(C)CC2=O)C(=O)C1`, for which the T/C reads like this: under setting [5], 102 % of control; under setting [6], 102 % of control; (dose: 200.0 mg/kg/injection, schedule: Q01DX005 (ip), vehicle: Klucel (hydroxypropylcellulose) (HPC)) 102 % of control.
For `OCC1OC(n2cnc3c(NCc4ccco4)ncnc32)C(O)C1O` (stereo not given), the T/C by setting is: under setting [1], 111 % of control; under setting [2], 93 % of control; (dose: 200.0 mg/kg/injection, schedule: Q01DX009 (ip), vehicle: saline with Tween-80) 118 % of control.
In the case of `CCN1CCN(CCCl)C1=O`, the T/C (dose: 200.0 mg/kg/injection, schedule: Q01DX009 (ip), vehicle: saline) is 160 % of control.
Turning to `COc1ccccc1NC(=O)C1=C(C)NC(C)=C(C(=O)Nc2ccccc2OC)C1c1c(Cl)cccc1Cl`, the T/C was 94 % of control under setting [7], 98 % of control under setting [8] and 95 % of control under setting [9].
`COc1cc2c(c(OC)c1OC)-c1ccc(S(=O)(=O)Cc3ccccc3)c(=O)cc1C(NC(C)=O)CC2` (stereo not given): the T/C by setting is: (dose: 0.78 mg/kg/injection, schedule: Q01DX009 (ip), vehicle: Klucel (hydroxypropylcellulose) (HPC)) 95 % of control; (dose: 1.56 mg/kg/injection, schedule: Q01DX009 (ip), vehicle: Klucel (hydroxypropylcellulose) (HPC)) 105 % of control and 106 % of control and 117 % of control; (dose: 3.12 mg/kg/injection, schedule: Q01DX009 (ip), vehicle: Klucel (hydroxypropylcellulose) (HPC)) 100 % of control and 107 % of control and 115 % of control; (dose: 6.25 mg/kg/injection, schedule: Q01DX009 (ip), vehicle: Klucel (hydroxypropylcellulose) (HPC)) 104 % of control and 107 % of control and 96 % of control; (dose: 12.5 mg/kg/injection, schedule: Q01DX009 (ip), vehicle: Klucel (hydroxypropylcellulose) (HPC)) 105 % of control and 109 % of control and 113 % of control; (dose: 25.0 mg/kg/injection, schedule: Q01DX009 (ip), vehicle: Klucel (hydroxypropylcellulose) (HPC)) 98 % of control and 101 % of control and 88 % of control.
Turning to `CCOC(=O)c1ccc(NN=NC)cc1`, the T/C by setting is: (dose: 12.5 mg/kg/injection, schedule: Q01DX009 (ip), vehicle: saline with Tween-80) 108 % of control and 113 % of control; under setting [1], 154 % of control and 173 % of control; under setting [2], 108 % of control and 91 % of control.
For the compound `O=C1CN(c2cccc(C(F)(F)F)c2)C(=O)CN1/N=C/c1ccco1`, the T/C reads like this: (dose: 12.5 mg/kg/injection, schedule: Q01DX005 (ip), vehicle: saline with Tween-80) 100 % of control; (dose: 25.0 mg/kg/injection, schedule: Q01DX005 (ip), vehicle: saline with Tween-80) 105 % of control; under setting [7], 99 % of control and 100 % of control.
In the case of `CCOC(=O)c1cnc(-c2ccccc2)n(-c2ccccc2)c1=O`, the T/C by setting is: under setting [5], 105 % of control; under setting [6], 107 % of control.
As for `O=C(O)c1cccc(C(=O)O)c1Sc1ccccc1`, the T/C is, setting by setting: (dose: 100.0 mg/kg/injection, schedule: Q01DX001 (ip), vehicle: saline with Tween-80) 103 % of control; (dose: 200.0 mg/kg/injection, schedule: Q01DX001 (ip), vehicle: saline with Tween-80) 100 % of control; (dose: 400.0 mg/kg/injection, schedule: Q01DX001 (ip), vehicle: saline with Tween-80) 94 % of control.
On to `Oc1c(CNCc2ccc(Cl)c(Cl)c2)ccc2cccnc12`, for which the T/C by setting is: (dose: 100.0 mg/kg/injection, schedule: Q04DX003 (ip), vehicle: Klucel (hydroxypropylcellulose) (HPC)) 104 % of control; (dose: 200.0 mg/kg/injection, schedule: Q04DX003 (ip), vehicle: Klucel (hydroxypropylcellulose) (HPC)) 105 % of control; (dose: 400.0 mg/kg/injection, schedule: Q04DX003 (ip), vehicle: Klucel (hydroxypropylcellulose) (HPC)) 106 % of control.
As for `COC(=O)N1[C@@H]2C=CC=CC=C2[C@@H](OC)N1C(=O)OC`, the T/C under setting [7] was 101 % of control, the T/C under setting [8] is 103 % of control and the T/C under setting [9] was 103 % of control.
In the case of `Cc1ccc(S(=O)(=O)/C=C/CCl)cc1`, the T/C under setting [7] is 103 % of control and the T/C under setting [8] is 113 % of control.
